Measurements published in PMC12412055, “Parallel synthesis of 5′-amino-5′-deoxy-adenosine derivatives for focused chemical space exploration and their application as methyltransferase inhibitors” (RSC Medicinal Chemistry, 2025).
Several values for one entry are separate records, joined by “and”; a condition that tells them apart may be missing. Equal entries are not always repeated. Where two headings read alike, the source gives them in different places.

What was measured:
[1] = molecular target: T1, METTL3/14 (Homo sapiens, UniProt Q86U44); test: Fluorescence polarization (FP) FTAD displacement assay, METTL3/14; format: binding; conditions: for KD (METTL3/14, FP-assay) / Kd / displacement of FTAD: 50 nM FTAD, 1 μM enzyme; for KD (METTL3/14, FP-assay) / Kd: compound dilution series; for displacement of FTAD: 100 μM compound
T1 construct: human METTL3 (UniProt: Q86U44 aa 252–580); Strep tag-II (C); made in house; host or cells: E. coli BL21(DE3), pETduet-1

[2] = molecular target: SARS-CoV-2 nsp14/10 (Severe acute respiratory syndrome coronavirus 2, UniProt P0DTD1); test: Fluorescence polarization (FP) FTAD displacement assay, nsp14/10; format: binding; conditions: for displacement of FTAD: 1 μM compound; for Kd: 50 nM FTAD
[3] = molecular target: T2, nsp14/10 (Severe acute respiratory syndrome coronavirus 2, UniProt P0DTD1); test: biochemical; format: binding; conditions: for Kd: read-out: KD (ITC)
[4] = molecular target: T2, nsp14/10; conditions: cited from earlier work
[5] = molecular target: T2, nsp14/10; test: Microscale thermophoresis (MST) FTAD displacement assay; format: binding; conditions: 50 nM FTAD, 3-fold dilution series of nsp14/10
[6] = molecular target: human DNMT2; parameters: method as in PMID 39145518; conditions: probe affinity; read-out: KD of FTAD for DNMT2; cited from earlier work
[7] = molecular target: T1, METTL3/14; parameters: method as in PMID 39145518; conditions: probe affinity; read-out: KD of FTAD for METTL3/14; cited from earlier work
[8] = mean ± standard deviation from duplicate measurements, 25 °C
[9] = single measurement (one of duplicates)
[10] = ligand 0.305 µM, dilution series
[11] = ligand 0.914 µM, dilution series
[12] = ligand 2.74 µM, dilution series
[13] = ligand 8.22 µM, dilution series
[14] = ligand 24.7 µM, dilution series
[15] = ligand 74.0 µM, dilution series
[16] = ligand 100 µM, triplicate wells
[17] = ligand 100 µM, triplicate wells, enzyme not printed in Table S4
[18] = 1 μM enzyme, compound dilution series, read-out: KD (nsp14/10, determined by FP-assay)

T1 sequence (Q86U44 252-580): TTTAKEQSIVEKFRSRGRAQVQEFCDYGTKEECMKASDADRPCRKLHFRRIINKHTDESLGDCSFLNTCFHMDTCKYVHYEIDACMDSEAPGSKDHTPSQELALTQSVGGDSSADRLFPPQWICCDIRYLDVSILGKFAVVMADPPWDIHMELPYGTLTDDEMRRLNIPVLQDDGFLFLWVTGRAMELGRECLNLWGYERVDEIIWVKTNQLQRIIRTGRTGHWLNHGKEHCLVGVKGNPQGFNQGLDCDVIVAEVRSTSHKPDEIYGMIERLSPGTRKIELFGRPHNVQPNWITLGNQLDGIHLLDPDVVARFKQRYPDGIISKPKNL
T1 sequence (Q9HCE5 108-444 partner limits assumed): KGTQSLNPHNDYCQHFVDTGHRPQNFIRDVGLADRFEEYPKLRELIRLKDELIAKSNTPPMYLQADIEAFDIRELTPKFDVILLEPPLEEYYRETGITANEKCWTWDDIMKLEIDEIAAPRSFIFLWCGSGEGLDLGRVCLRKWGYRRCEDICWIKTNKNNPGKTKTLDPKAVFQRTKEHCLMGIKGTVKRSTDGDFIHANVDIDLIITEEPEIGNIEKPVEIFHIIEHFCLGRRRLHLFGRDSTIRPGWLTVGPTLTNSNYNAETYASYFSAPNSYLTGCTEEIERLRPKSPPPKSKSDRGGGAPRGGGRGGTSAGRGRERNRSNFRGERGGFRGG

In the case of Nc1ncnc2c1ncn2[C@@H]1O[C@H](CNS(=O)(=O)c2ccc3ccccc3c2)[C@@H](O)[C@H]1O [Compound 34, N-(((2R,3S,4R,5R)-5-(6-Amino-9H-purin-9-yl)-3,4-dihydroxy-tetrahydrofuran-2-yl)methyl)naphthalene-2-sulfonamide], the “KD (METTL3/14, FP-assay)” value [1] is reported as “low micromolar affinity”, the Kd [1] is reported as 12900 ± 2000 nM and the “displacement of FTAD” value [1] is reported as ~92%. For the same molecule, the “displacement of FTAD” value [2] was 100%, the “KD (ITC)” value [3, 8] was “nanomolar range” and the “-T∆S (ITC)” value [3, 9] was 12 kcal/mol and 14.9 kcal/mol. For the same molecule, the “stoichiometry n (ITC)” value [3, 9] was 0.66 and 0.67, the Kd [3, 9] was 165 nM and 214 nM and the “binding and inhibition of nsp14/10” value [4] was “nanomolar range”.
For CN(C)c1cccc2c(S(=O)(=O)NC[C@H]3O[C@@H](n4cnc5c(N)ncnc54)[C@H](O)[C@@H]3O)cccc12 [Compound 42, N-(((2R,3S,4R,5R)-5-(6-Amino-9H-purin-9-yl)-3,4-dihydroxy-tetrahydrofuran-2-yl)methyl)-5-(dimethylamino)naphthalen-1-sulfonamide], the “KD (METTL3/14, FP-assay)” value [1] was “low micromolar affinity”, the Kd [1] was 22500 ± 1400 nM and the “displacement of FTAD” value [1] was ~92%. The “fluorescence polarization, raw data” value [1, 10] was 144 mP and 142 mP and 140 mP, the “total intensity, raw data” value [1, 10] was 16997 and 14743 and 15446 and the “fluorescence polarization, raw data” value [1, 11] was 131 mP and 134 mP and 139 mP. The “total intensity, raw data” value [1, 11] was 16613 and 15443 and 18075, the “fluorescence polarization, raw data” value [1, 12] was 128 mP and 126 mP and the “total intensity, raw data” value [1, 12] was 15091 and 15438 and 15739. The “fluorescence polarization, raw data” value [1, 13] was 116 mP and 113 mP and 115 mP, the “total intensity, raw data” value [1, 13] was 16190 and 14718 and 16069 and the “fluorescence polarization, raw data” value [1, 14] was 90 mP and 84 mP and 93 mP. The “total intensity, raw data” value [1, 14] was 17750 and 16617 and 17703, the “fluorescence polarization, raw data” value [1, 15] was 40 mP and 43 mP and 54 mP and the “total intensity, raw data” value [1, 15] was 17281 and 16313 and 18091. For the same molecule, the “total intensity, raw data” value [1, 16] was 18205 and 16177 and 16524, the “fluorescence polarization, raw data” value [1, 17] was 44 mP and 42 mP and 39 mP and the “fluorescence polarization, raw data” value ([1]; ligand 222 µM, dilution series) was 23 mP and 28 mP and 40 mP. For the same molecule, the “total intensity, raw data” value ([1]; ligand 222 µM, dilution series) was 22984 and 20625 and 20534, the “fluorescence polarization, raw data” value ([1]; ligand 666 µM, dilution series) was 30 mP and 36 mP and 33 mP and the “total intensity, raw data” value ([1]; ligand 666 µM, dilution series) was 25251 and 24796 and 26626.
For Cc1cccc(-c2cncc(C(=O)NC[C@H]3O[C@@H](n4cnc5c(N)ncnc54)[C@H](O)[C@@H]3O)c2)c1 [Compound 64, N-(((2R,3S,4R,5R)-5-(6-Amino-9H-purin-9-yl)-3,4-dihydroxytetra hydrofuran-2-yl)methyl)-5-(m-tolyl)nicotinamide], the Kd [2, 18] was 2900 ± 380 nM.
In the case of Nc1ncnc2c1ncn2[C@@H]1O[C@H](C[C@@H](N)CC[C@H](N)C(=O)O)[C@@H](O)[C@H]1O [SFG, sinefungin, reference compound], the “displacement of FTAD” value [1] is reported as 92%.
For Nc1ncnc2c1ncn2[C@@H]1O[C@H](CNS(=O)(=O)c2ccc(Cl)c(C(F)(F)F)c2)[C@@H](O)[C@H]1O [Compound 46, N-(((2R,3S,4R,5R)-5-(6-Amino-9H-purin-9-yl)-3,4-dihydroxy-tetrahydrofuran-2-yl)methyl)-4-chloro-3-(trifluoromethyl) benzenesulfonamide], the “displacement of FTAD” value [2] was 100%, the “KD (ITC)” value [3, 8] was “nanomolar range” and the Kd [3, 8] was 106 ± 6 nM. The “-T∆S (ITC)” value [3, 9] was 15.8 kcal/mol and 13.8 kcal/mol, the “stoichiometry n (ITC)” value [3, 9] was 0.43 and 0.44 and the Kd [3, 9] was 111 nM and 100 nM.
In the case of Nc1ncnc2c1ncn2[C@@H]1O[C@H](CN(CC[C@H](N)C(=O)O)Cc2cn(CCNC(=O)c3ccc4c(c3)C(=O)OC43c4ccc(O)cc4Oc4cc(O)ccc43)nn2)[C@@H](O)[C@H]1O [FTAD, 5-FAM-triazolyl-adenosyl-diaminobutyric acid], the Kd ([2]; 2-fold dilution series of nsp14/10 from 3.00 μM to 46.9 nM, read-out: KD(FTAD, nsp14/10), FP-assay) is listed as 1300 ± 300 nM, the Kd [5] is listed as 1200 ± 100 nM and the Kd [6] is listed as 6400 ± 700 nM. For the same molecule, the Kd [7] was 1100 ± 100 nM.
In the case of Nc1ncnc2c1ncn2[C@@H]1O[C@H](CNC(=O)Cc2cccc(F)c2Br)[C@@H](O)[C@H]1O [Compound 63, N-(((2R,3S,4R,5R)-5-(6-Amino-9H-purin-9-yl)-3,4-dihydroxytetra hydrofuran-2-yl)methyl)-2-(2-bromo-3-fluorophenyl)acetamide], the Kd [2, 18] is reported as 17200 ± 5500 nM.
Molecule Nc1ncnc2c1ncn2[C@@H]1O[C@H](CNS(=O)(=O)Cc2ccc3ccccc3c2)[C@@H](O)[C@H]1O [Compound 65, N-(((2R,3S,4R,5R)-5-(6-Amino-9H-purin-9-yl)-3,4-dihydroxytetra hydrofuran-2-yl)methyl)-1-(naphthalen-2-yl)methanesulfon amide] has a Kd [2, 18] of 3800 ± 780 nM.
In the case of Nc1ncnc2c1ncn2[C@@H]1O[C@H](CNS(=O)(=O)c2ccc(Br)c([N+](=O)[O-])c2)[C@@H](O)[C@H]1O [Compound 44, N-(((2R,3S,4R,5R)-5-(6-Amino-9H-purin-9-yl)-3,4-dihydroxytetrahydrofuran-2-yl)methyl)-4-bromo-3-nitrobenzenesulfon amide], the “inhibition of nsp14/10” value [4] is listed as “low micromolar range”.
With Nc1ncnc2c1ncn2[C@@H]1O[C@H](CNS(=O)(=O)/C=C/c2ccccc2)[C@@H](O)[C@H]1O [Compound 35, (E)-N-(((2R,3S,4R,5R)-5-(6-Amino-9H-purin-9-yl)-3,4-di-hydroxytetrahydrofuran-2-yl)methyl)-2-phenylethene-1-sulfonamide] the “displacement of FTAD” value [2] was 100%, the “ΔH (ITC)” value ([3]; mean ± standard deviation from duplicate measurements) was -32.86 kcal/mol and the “KD (ITC)” value [3, 8] was “nanomolar range”. The “-T∆S (ITC)” value [3, 9] was 24.6 kcal/mol and 22.5 kcal/mol, the “stoichiometry n (ITC)” value [3, 9] was 0.42 and 0.45 and the Kd [3, 9] was 151 nM and 169 nM.
For Nc1ncnc2c1ncn2[C@@H]1O[C@H](CNS(=O)(=O)Cc2ccccc2)[C@@H](O)[C@H]1O [Compound 66, N-(((2R,3S,4R,5R)-5-(6-Amino-9H-purin-9-yl)-3,4-dihydroxytetra hydrofuran-2-yl)methyl)-1-phenylmethanesulfonamide], the Kd [2, 18] was 42300 ± 11100 nM.
In the case of Cc1ccc(S(=O)(=O)NC[C@H]2O[C@@H](n3cnc4c(N)ncnc43)[C@H](O)[C@@H]2O)cc1[N+](=O)[O-] [Compound 47, N-(((2R,3S,4R,5R)-5-(6-Amino-9H-purin-9-yl)-3,4-dihydroxy-tetrahydrofuran-2-yl)methyl)-4-methyl-3-nitrobenzenesulfon amide], the “inhibition of nsp14/10” value [4] is listed as “low micromolar range”.
For Nc1ncnc2c1ncn2[C@@H]1O[C@H](CNS(=O)(=O)c2ccc(-c3ccccc3)cc2)[C@@H](O)[C@H]1O [Compound 40, N-(((2R,3S,4R,5R)-5-(6-Amino-9H-purin-9-yl)-3,4-dihydroxy-tetrahydrofuran-2-yl)methyl)-[1,1′-biphenyl]-4-sulfonamide], the “KD (METTL3/14, FP-assay)” value [1] was “low micromolar affinity”, the Kd [1] was 16100 ± 4600 nM and the “displacement of FTAD” value [1] was ~92%.
For Nc1ncnc2c1ncn2[C@@H]1O[C@H](CSCC[C@H](N)C(=O)O)[C@@H](O)[C@H]1O [SAH, S-adenosyl-L-homocysteine, reference compound], the “total intensity, raw data” value [1, 16] was 15527 and 14218 and 14357 and the “fluorescence polarization, raw data” value [1, 17] was 13 mP and 7 mP and 8 mP.
